This is an account of results in US11224223B2, “Feeding deterrence of pests such as Hemiptera, Lepidoptera and Coleoptera” (BEDOUKIAN RESEARCH, INC., priority 2012, dated 2022).

Structures are written as SMILES.

Series [1] has as its system brown marmorated stink bugs (BMSB). Description: Repellency as feeding deterrence in brown marmorated stink bugs, treated filter paper with green bean. The class given is in vivo. Particulars: control 38%. How it is done:
A test was designed to measure the repellency as feeding deterrence in brown marmorated stink bugs (BMSB). Five replicates of 5 BMSBs were introduced into test arenas, containing one 60 mm×15 mm Petri dish with treated filter papers in which a food source (green bean) was attached, at the start of the test. The small Petri dishes containing the treated filter paper and food source were covered with a fitted Petri dish lid in between observation times, and were removed 5 minutes before each observation time to prevent stink bugs from feeding until sated. The distribution of the BMSBs was observed and documented hourly for 5 hours.

For another series, the system named is Codling Moth larvae. The series can be described thus: Repellency as feeding deterrence and mortality in Codling Moth larvae on treated media. The class given is in vivo. Particulars: for Repellency at 24 hours: first instar larva, control 8%. How it is done: Another test was designed to measure the repellency as feeding deterrence in Codling Moth larvae. The treatment was applied to the surface of a proprietary laboratory media in a tray with wells for each compound. The media was allowed to dry for 30-60 minutes so that larvae were not exposed to it as a liquid. One first instar codling moth larva was then placed on the treated media. The cover film was placed on the tray to prevent escapes. Ten additional replicates treated with a 57% ethanol solution were prepared to serve as controls. […] After the 24 hour reading, the larvae were extracted from the media to record any mortality.
Mortality observations were also made for the above protocol. The control was the 57% ethanol:43% water solution.

[2] abbreviates: compound at 2.5% in a 57% Ethanol:43% water solution.
The mark [3] stands for this setting: compound at 3.5% in a 57% Ethanol:43% water solution.

Turning to `CCCCCC1C(=O)CCC1CC(=O)OC` (stereo not drawn) [Methyl Dihydrojasmonate - High epi, Methyl Dihydrojasmonate], the “Repellency averaged over 5 hours” value in series [1] (setting [2]) came out at 39%. On to `CCCCCCCC1CC(=O)C=C(C)C1` (centres unmarked) [3-Methyl-5-Heptyl-2-Cyclohexenone], for which, in the series with Codling Moth larvae (setting [3]), the “Increased Mortality over Control Mortality at 24 hours” value (“Increased Mortality” below) is recorded as 93% and the “Repellency at 24 hours” value is given as 95%. Consider `CCCCCC1C(=O)CCC1CC(=O)OCCC` (stereo not drawn) [Propyl Dihydrojasmonate - Low epi, Propyl Dihydrojasmonate], for which the “Repellency averaged over 5 hours” value in series [1] (setting [2]) amounted to 74%.

For `CC1CCC(C(C)(C)O)C(O)C1` (centres unmarked) [Para-Menthanediol, p-Menthane-3,8-diol, reference compound], in series [1] (setting [3]), the “Repellency averaged over 5 hours” value worked out at 91%. Also, in the series with Codling Moth larvae (setting [3]), the “Increased Mortality” value amounted to 3% and the “Repellency at 24 hours” value was determined as 10%. Take `CCCCCC1C(=O)CCC1CC(=O)OC` (stereo not drawn) [Methyl Dihydrojasmonate - Low epi, Methyl Dihydrojasmonate]: in series [1] (setting [2]), the “Repellency averaged over 5 hours” value is on record as 58%. As for `CCCCCCCCCC1(C)CCC(=O)O1` (centres unmarked) [Gamma-Methyl Tridecalactone], the “Repellency averaged over 5 hours” value in series [1] (setting [3]) was 67%.

For the compound `CCCCCC1C(=O)CCC1CC(=O)OCC=C(C)C` (centres unmarked) [Prenyl Dihydrojasmonate], in the series on Codling Moth larvae (setting [3]), the “Increased Mortality” value stood at 34% and the “Repellency at 24 hours” value was 79%. Consider `CCCCCCCCC1CCC(=O)O1` (centres unmarked) [Gamma-Dodecalactone], for which the “Repellency averaged over 5 hours” value in series [1] (setting [3]) came to 82%. Moreover, in the series on Codling Moth larvae (setting [3]), the “Repellency at 24 hours” value is 46%. Also, the “Increased Mortality” value in the series with Codling Moth larvae (in vivo) is reported as 37%. As to `CCCC1CC(C)=CC(O)C1` (centres unmarked) [3-Methyl-5-Propyl-2-Cyclohexenol], in the series on Codling Moth larvae (setting [3]), the “Increased Mortality” value is reported as 9% and the “Repellency at 24 hours” value is 30%. Regarding `CCCCCC1C(=O)CCC1CC(=O)OCCC` (stereo not drawn) [Propyl Dihydrojasmonate - High epi, Propyl Dihydrojasmonate], the “Repellency averaged over 5 hours” value in series [1] (setting [2]) is listed as 49%.
